Biological target: HCV-NS5BΔ21 RdRp genotype 1b (strain J4) (Hepatitis C virus genotype 1b, UniProt O92972)
Experiment: biochemical
Design: His6 (N); made in house; host or cells: Escherichia coli C41(DE3)
Details: 20 μM compound; for Slope of fluorescence increase: no treatment control slope 62.0
Procedure: The HCV RdRps (NS5B protein) from reference strains H77 (genotype 1a), J4 (genotype 1b) and JFH1 (genotype 2a), truncated of their 21 C-terminal amino acids to ensure solubility (NS5BΔ21) and carrying a hexahistidine tag (His6-Tag) at their N-terminus, were expressed in Escherichia coli C41(DE3) and purified as previously described ([20]). Briefly, cultures were grown at 37°C for ∼1 h and induced with 1 mM isopropyl β-D-thiogalactoside for 4 h at 37°C. […] After sonication, cell lysates were clarified by centrifugation, and chromatography was performed on a Ni-NTA column (Qiagen, Hilden, Germany). The bound protein was eluted in 1 ml fractions with a buffer containing 50 mM NaH2PO4 (pH 8.0), 500 mM NaCl and 250 mM imidazole. NS5BΔ21-enriched fractions were selected using a Bradford colorimetric assay, and HCV-NS5BΔ21 purity was determined by Coomassie-stained sodium dodecyl sulfate-polyacrylamide electrophoresis gel (SDS-PAGE) analysis. Purified NS5BΔ21 fractions were pooled and dialyzed against a buffer containing 5 mM Tris (pH 7.5), 0.2 M sodium acetate, 1 mM DTT, 1 mM ethylenediaminetetraacetic acid (EDTA) and 10% glycerol.
The cell-free HCV-NS5BΔ21 polymerase assay is based on the real-time measurement of the amount of double-stranded RNA synthesized in the presence of HCV-NS5BΔ21, a homopolymeric RNA template (poly U or poly C, GE Healthcare, Chalfont St. Giles, UK) and the corresponding nucleotide, by means of an intercalating agent (SYBR® Green, Applied Biosystems, Carlsbad, CA, USA), as previously described ([20]). For screening, HCV-NS5BΔ21 polymerase activity was quantified by the slope of fluorescence increase in the presence of 20 μM of the tested flavonoid compounds and compared with the control reaction containing no inhibitor. […] The reported values are the average of three independent measurements performed in duplicate. For kinetics analysis, initial reaction velocities were measured at different nucleotide (adenosine triphosphate (ATP) or GTP) and studied compound concentrations, without pre-incubation and in the presence of 50 μg/ml of the corresponding homopolymeric RNA template (Poly U and Poly C, respectively). The concentration of NS5BΔ21 (J4 strain, genotype 1b) in the reaction was 0.1 mg/ml. Kinetics data were graphically represented as double reciprocal plots. Data points were fitted by linear regression to identify the inhibition mode of the compound.

Compound: Oc1cc(O)c2c(c1)O[C@H](c1ccc(O)c(O)c1)[C@@H](O)C2 (racemic) [DL-Catechin]
- % HCV-NS5BΔ21 inhibition: 17.7%
- Slope of fluorescence increase: 51.1

Compound: O=C1c2ccc(O)cc2OC(c2cc(O)c(O)c(O)c2)C1O (stereo in doubt) [Dihydrorobinetin]
- % HCV-NS5BΔ21 inhibition: 11.0%
- Slope of fluorescence increase: 55.2

Compound: O=c1cc(-c2ccc(O)c(O)c2)oc2ccccc12 [3’.4’-Dihydroxyflavone]
- % HCV-NS5BΔ21 inhibition: 45.4%
- Slope of fluorescence increase: 33.9

Compound: O=c1cc(-c2ccc(O)c(O)c2)oc2c(O)c(O)ccc12 [3’.4’.7.8-Tetrahydroxyflavone]
- % HCV-NS5BΔ21 inhibition: 30.9%
- Slope of fluorescence increase: 42.9

Compound: O=C1CC(c2ccc(O)cc2)Oc2ccccc21 (stereo not shown) [4’-Hydroxyflavanone]
- inhibition at 20 µM: 9.3%
- Slope of fluorescence increase: 56.3

Compound: O=c1c(O)c(-c2ccc(O)cc2)oc2cc(O)ccc12 [5-Deoxykampferol]
- % HCV-NS5BΔ21 inhibition (20 µM): 63.9%
- Slope of fluorescence increase: 22.4

Compound: O=c1cc(-c2ccccc2)oc2cccc(O)c12 [5-hydroxyflavone]
- inhibition at 20 µM: 14.5%
- Slope of fluorescence increase: 53.0

Compound: O=c1cc(-c2ccccc2)oc2c(O)c(O)cc(O)c12 [5.7.8-Trihydroxyflavone]
- % HCV-NS5BΔ21 inhibition: 47.4%
- Slope of fluorescence increase: 32.6

Compound: O=C1CC(c2ccccc2)Oc2ccc(O)cc21 (stereo not shown) [6-Hydroxyflavanone]
- inhibition at 20 µM: 4.1%
- Slope of fluorescence increase: 59.5

Compound: O=c1cc(-c2ccccc2)oc2ccc(O)cc12 [6-Hydroxyflavone]
- inhibition at 20 µM: 18.5%
- Slope of fluorescence increase: 50.6

Compound: O=c1cc(-c2ccccc2)oc2cc(O)c(O)cc12 [6.7 Dihydroxyflavone]
- % HCV-NS5BΔ21 inhibition: 37.4%
- Slope of fluorescence increase: 38.8

Compound: O=c1c(O)c(-c2ccccc2)oc2cc(O)ccc12 [7-hydroxyflavonol]
- inhibition at 20 µM: 71.3%
- Slope of fluorescence increase: 17.8

Compound: O=c1cc(-c2ccc(O)cc2)oc2cc(O)ccc12 [7.4’-Dihydroxyflavone]
- % HCV-NS5BΔ21 inhibition: 25.7%
- Slope of fluorescence increase: 46.1

Compound: O=c1cc(-c2ccccc2)oc2c(O)c(O)ccc12 [7.8 Dihydroxyflavone]
- % HCV-NS5BΔ21 inhibition: 30.8%
- Slope of fluorescence increase: 42.9

Compound: O=c1cc(-c2ccc(O)cc2)oc2cc(O)cc(O)c12 [Apigenin]
- inhibition at 20 µM: 62.5%
- Slope of fluorescence increase: 23.3

Compound: O=c1cc(-c2ccccc2)oc2cc(O)c(O)c(O)c12 [Baicalein]
- inhibition at 20 µM: 61.8%
- Slope of fluorescence increase: 23.7

Compound: O=c1c(O)c(-c2ccccc2O)oc2cc(O)cc(O)c12 [Datiscetin]
- inhibition at 20 µM: 70.5%
- Slope of fluorescence increase: 18.3

Compound: O=c1c(O)c(-c2ccc(O)c(O)c2)oc2cc(O)ccc12 [Fisetin]
- inhibition at 20 µM: 65.8%
- Slope of fluorescence increase: 21.2

Compound: O=C1CC(c2ccccc2)Oc2ccccc21 (stereo not shown) [Flavanone]
- inhibition at 20 µM: 7.5%
- Slope of fluorescence increase: 57.4

Compound: O=c1cc(-c2ccccc2)oc2ccccc12 [Flavone]
- inhibition at 20 µM: 13.1%
- Slope of fluorescence increase: 53.9

Compound: O=C1c2ccc(O)cc2O[C@H](c2ccc(O)c(O)c2)[C@H]1O [Fustin]
- inhibition at 20 µM: 14.5%
- Slope of fluorescence increase: 53.0

Compound: O=c1c(O)c(-c2ccccc2)oc2cc(O)cc(O)c12 [Galangin]
- inhibition at 20 µM: 80.8%
- Slope of fluorescence increase: 11.9

Compound: O=c1c(-c2ccc(O)cc2)coc2cc(O)cc(O)c12 [Genistein]
- inhibition at 20 µM: 13.1%
- Slope of fluorescence increase: 53.9

Compound: O=c1c(O)c(-c2ccc(O)c(O)c2)oc2c(O)c(O)cc(O)c12 [Gossypetin]
- inhibition at 20 µM: 74.6%
- Slope of fluorescence increase: 15.8

Compound: O=c1c(O[C@@H]2O[C@H](CO)[C@H](O)[C@H](O)[C@H]2O)c(-c2ccc(O)c(O)c2)oc2cc(O)cc(O)c12 [Hyperoside]
- inhibition at 20 µM: 28.1%
- Slope of fluorescence increase: 44.6

Compound: COc1cc(-c2oc3cc(O)cc(O)c3c(=O)c2O)ccc1O [Isorhamnetin]
- inhibition at 20 µM: 77.6%
- Slope of fluorescence increase: 13.9

Compound: O=c1c(O)c(-c2ccc(O)cc2)oc2cc(O)cc(O)c12 [Kaempferol]
- inhibition at 20 µM: 74.7%
- Slope of fluorescence increase: 15.7

Compound: O=C1C[C@@H](c2ccc(O)cc2)Oc2cc(O)ccc21 [Liquiritigenin]
- % HCV-NS5BΔ21 inhibition: 6.1%
- Slope of fluorescence increase: 58.3

Compound: O=c1cc(-c2ccc(O)c(O)c2)oc2cc(O)cc(O)c12 [Luteolin]
- inhibition at 20 µM: 81.7%
- Slope of fluorescence increase: 11.4

Compound: O=c1c(O)c(-c2ccc(O)cc2O)oc2cc(O)cc(O)c12 [Morin]
- inhibition at 20 µM: 69.3%
- Slope of fluorescence increase: 19.0

Compound: O=c1c(O)c(-c2cc(O)c(O)c(O)c2)oc2cc(O)cc(O)c12 [Myricetin]
- inhibition at 20 µM: 79.2%
- Slope of fluorescence increase: 12.9

Compound: O=C1C[C@@H](c2ccc(O)cc2)Oc2cc(O)cc(O)c21 [Naringenin]
- inhibition at 20 µM: 6%
- Slope of fluorescence increase: 58.3

Compound: O=c1c(O)c(-c2ccc(O)c(O)c2)oc2cc(O[C@@H]3O[C@H](CO)[C@@H](O)[C@H](O)[C@H]3O)c(O)c(O)c12 [Quercetagetin-7-O glucoside]
- % HCV-NS5BΔ21 inhibition: 42.5%
- Slope of fluorescence increase: 35.7

Compound: COc1cc(OC)c2c(=O)c(OC)c(-c3ccc(OC)c(OC)c3)oc2c1 [Quercetin 3.5.7.3’.4’ pentamethylether]
- % HCV-NS5BΔ21 inhibition: 4.0%
- Slope of fluorescence increase: 59.6

Compound: COc1cc(O)c2c(=O)c(OC)c(-c3ccc(OC)c(OC)c3)oc2c1 [Quercetin 3.7.3’.4’ tétramethylether]
- % HCV-NS5BΔ21 inhibition: 14.5%
- Slope of fluorescence increase: 53.0

Compound: O=c1c(O[C@@H]2O[C@H](CO)[C@@H](O)[C@H](O)[C@H]2O)c(-c2ccc(O)c(O)c2)oc2cc(O)cc(O)c12 [Quercetin-3-O glucopyranoside]
- % HCV-NS5BΔ21 inhibition: 25.9%
- Slope of fluorescence increase: 46.0

Compound: O=c1c(O)c(-c2ccc(O)c(O)c2)oc2cc(O)cc(O)c12 [Quercetin]
- inhibition at 20 µM: 83.7%
- Slope of fluorescence increase: 10.1

Compound: O=c1c(O)c(-c2cc(O)c(O)c(O)c2)oc2cc(O)ccc12 [Robinetin]
- inhibition at 20 µM: 55.9%
- Slope of fluorescence increase: 27.4

Source: paper PMC4132742, “Inhibition of RNA binding to hepatitis C virus RNA-dependent RNA polymerase: a new mechanism for antiviral intervention” (Nucleic Acids Research, 2014)
